According to patent EP0224924B1, “Non-aromatic fluorallylamine MAO inhibitors” (MERRELL DOW PHARMACEUTICALS INC., priority 1985, dated 1987):

Legend:
[1] = biological target: T1, MAO-B (Rattus norvegicus, UniProt P19643); test: Inhibition of MAO in vitro, rat brain mitochondria, 14C phenethylamine (PEA) as substrate; type: biochemical; settings: ratio of the inhibitory activity against MAO-B versus MAO-A
T1 construct: in partially purified mitochondria from rat brain; from tissue; host or cells: rat brain mitochondria (partially purified, differential centrifugation)
T1 sequence (P19643 1-520): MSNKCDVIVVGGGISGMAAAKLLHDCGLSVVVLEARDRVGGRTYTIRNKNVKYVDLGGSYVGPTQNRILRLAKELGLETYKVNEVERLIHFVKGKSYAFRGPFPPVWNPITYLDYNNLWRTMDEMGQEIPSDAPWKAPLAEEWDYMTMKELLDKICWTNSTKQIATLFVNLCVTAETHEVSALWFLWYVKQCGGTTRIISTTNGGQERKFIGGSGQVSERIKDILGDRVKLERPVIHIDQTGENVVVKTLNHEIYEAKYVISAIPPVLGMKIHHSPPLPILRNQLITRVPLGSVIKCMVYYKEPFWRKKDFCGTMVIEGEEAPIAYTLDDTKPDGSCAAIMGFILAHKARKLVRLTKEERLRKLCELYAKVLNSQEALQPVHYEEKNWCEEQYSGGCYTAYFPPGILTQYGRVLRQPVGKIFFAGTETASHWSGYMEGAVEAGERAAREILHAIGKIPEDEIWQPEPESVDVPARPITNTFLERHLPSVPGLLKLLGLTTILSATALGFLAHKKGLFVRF
Source text: The ability of a compound of structure 1 to inhibit MAO can be determined in vitro by the method of A. Christmas et al., Br. J. Pharmacol. 45, 490 (1972) in partially purified mitochondria from rat brain using ¹⁴C o-tyramine or ¹⁴C phenethylamine and ¹⁴C 5-HT as the substrate. The MAO inhibitory activity of a compound is expressed as the "IC₅₀" value, which is the molar concentration required to produce 50% inhibition of the enzyme. The IC₅₀ values for certain compounds of structure 1 were determined using the above-described method, and the results are set forth in Table I.
The selectivity of a compound of structure 1 with respect to inhibition of MAO-A and MAO-B can be determined by preparing mitochondria from rat brain by homogenation in phosphate buffer (0.1 M, pH 7.2) followed by differential centrifugation. The mitochondria are suspended in the same buffer, the test compound is added at the desired concentration, and the system is incubated. At different time intervals, aliquots are taken and MAO activity is measured using ¹⁴C 5-hydroxytryptamine (5HT; a preferred substrate for MAO-A) or 14C-phenethylamine (PEA; a preferred substrate for MAO-B) as the substrates. The selectivity is expressed as the ratio of the inhibitory activity against MAO-B versus the inhibitory activity against MAO-A. (Zreika, McDonald, Bey, Palfreyman, J. Neurochem., 43, 448-454 (1984)).

[2] = system: MAO-B; test: Inhibition of MAO ex vivo, brain mitochondrial fraction after oral dosing, 14C phenethylamine as substrate; type: in vivo; settings: rats, orally (po)
Experimental: (§1) The ability of a compound of formula 1 to inhibit MAO can be determined ex vivo by the following procedure:
(§2) The test compound is administered orally (po) to rats and the animals are killed at various times after treatment. The brain is removed and a mitochondrial fraction, described in Example 12 is prepared. MAO activity is determined using ¹⁴C p-tyramine, as the substrate. Selectivity can be determined by repeating the above-described test using either ¹⁴C 5-hydroxytryptamine (for MAO-A) or ¹⁴C phenethylamine (for MAO-B) as the substrate for determining the % inhibition.

[3] = system: MAO-A; test: Inhibition of MAO ex vivo, brain mitochondrial fraction after oral dosing, 14C 5-hydroxytryptamine as substrate; type: in vivo; settings: rats, orally (po)
Experimental: as §1, §2

SMILES | MAO B SELECTIVITY [1] | ED50 for MAO-B inhibition [2] [mg/kg] | ED50 for MAO-A inhibition [3] [mg/kg]
CCCC/C(=C\F)CN [(E)-2-Butyl-3-fluoroallylamine] | 55 |  | 
CCCCCCC/C(=C\F)CN [(E)-2-Heptyl-3-fluoroallylamine] | 13 |  | 
CCCCCC/C(=C\F)CN [(E)-2-Hexyl-3-fluoroallylamine] | 24 |  | 
CC(C)C/C(=C\F)CN [(E)-2-Isobutyl-3-fluoroallylamine] | 77 | 0.05 | 0.8
CC(C)/C(=C\F)CN [(E)-2-Isopropyl-3-fluoroallylamine] | 68 |  | 
CCCCCCCCCCC/C(=C\F)CN [(E)-2-Undecyl-3-fluoroallylamine] | 1.5 |  | 
CCC(C)/C(=C\F)CN (stereo not drawn) [(E)-2-sec-Butyl-3-fluoroallylamine] | 24 |  | 
